According to US20100197591A1, “4-AMINO-7,8-DIHYDROPYRIDO[4,3-d]PYRIMIDIN-5(6H)-ONE DERIVATIVES” (pfizer Inc, priority 2009, published 2010):
pIC50: −log10 of the molar value.

Each compound was assayed against T1, Human full-length diacylglycerol:acylCoA acyltransferase 1 (DGAT-1) (Homo sapiens, UniProt O75907) (assay: DGAT-1 Reduced Microsome Multidose Assay, G7329F Human IC50). Conditions: crude membrane fraction of Sf9 cells expressing human DGAT-1; [14C]decanoylCoA; apparent IC50, average where tested more than once.
T1 construct: Human full-length diacylglycerol:acylCoA acyltransferase 1 (DGAT-1) was expressed in Sf9 insect cells; made in house; host or cells: Sf9 insect cells (baculovirus); crude membrane/microsome fraction
T1 sequence (O75907 1-488): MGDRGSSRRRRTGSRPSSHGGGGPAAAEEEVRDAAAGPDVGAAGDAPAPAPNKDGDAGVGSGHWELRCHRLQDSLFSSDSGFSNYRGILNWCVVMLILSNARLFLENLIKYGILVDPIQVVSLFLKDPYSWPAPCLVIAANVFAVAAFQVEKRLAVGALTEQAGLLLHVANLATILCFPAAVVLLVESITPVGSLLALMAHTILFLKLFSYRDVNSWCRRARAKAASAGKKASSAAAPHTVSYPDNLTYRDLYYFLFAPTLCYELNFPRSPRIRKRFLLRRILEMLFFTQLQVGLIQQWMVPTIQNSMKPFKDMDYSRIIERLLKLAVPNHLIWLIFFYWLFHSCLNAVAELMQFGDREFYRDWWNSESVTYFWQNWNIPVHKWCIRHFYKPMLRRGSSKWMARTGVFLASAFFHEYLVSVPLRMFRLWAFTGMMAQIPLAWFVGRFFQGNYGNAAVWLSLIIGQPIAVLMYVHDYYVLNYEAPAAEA
Type: biochemical
Description: Human full-length diacylglycerol:acylCoA acyltransferase 1 (DGAT-1) was expressed in Sf9 insect cells which are then lysed and a crude membrane fraction (105,000×g pellet) was prepared. The DGAT-1 gene is a human DGAT-1 gene described in J Biol Chem 273:26765 (1998) and U.S. Pat. No. 6,100,077.
In vitro inhibition of DGAT-1 was measured using a modification, further described below, of the assay methodology described in U.S. Pat. No. 6,994,956 B2.
The cells were cultured as follows. Sf9 cells (20 L) were infected with 4 mL of DGAT-1 Baculovirus Infected Insect Cells (BIIC) for 72 hours in a Wave Bioreactor System 20/50P (Wave Biotec/GE Healthcare).
Crude DGAT-1 microsomes were prepared as follows. Cell pellets were washed once with ice-cold Dulbecco's phosphate-buffered saline. Cells were collected in tabletop centrifuge (Beckman GS-6KR), 15 minutes, 2000×g, 4° C. Twenty (20) mL of ice-cold Microsome Buffer (MB) was added per 5 g of cell pellet. The suspension was passed through a microfluidizer 3 times (18K psi). The lysate was transferred to centrifuge tubes and centrifuged for 20 minutes at 5000×g (Beckman-Coulter, Inc. Allegra® 64R High-Speed Refrigerated Benchtop Centrifuge, F0650 rotor) at 4° C. The supernatant was transferred to ultracentrifuge tubes and centrifuged at 125,000×g for 1 hour in a Beckman Ti-45 rotor, 4° C. The supernatant fluid was discarded. The pellet was resuspended in 70 mL of MB by sonication. The microsome concentration was determined using Bio-Rad Protein DC Protein Assay. The microsomes were filter sterilized with a 0.22 μm filter. The samples were portioned, flash frozen and stored at −80° C.
The Microsome Buffer, used for microsome preparation, was prepared by conventional means and contained 125 mM sucrose, 3 mM imidazole, 0.2 μg/mL aprotinin, 0.2 μg/mL leupeptin and 5 mM dithiothreitol (Cleland's reagent), DGAT-1 activity was measured in 384-well format in a total assay volume of 25 μl that contained, Hepes buffer (50 mM, pH 7.5), MgCl2 (10 mM), bovine serum albumin (0.6 mg/ml), [^14C]decanoylCoA (20 μM, 58 Ci/mol) and membranes (25 μg/ml) into which 1,2 dioleoyl-sn-glycerol (75 μM) in acetone has already been incorporated. Inhibitors in DMSO were pre-incubated with membranes before initiating the DGAT-1 reaction by the addition of decanoylCoA. […] The DMSO concentration was 2.5%. The inhibitors were present at a range of eight concentrations to generate an apparent IC50 for each compound. The eight inhibitor concentration employed ranged from 10 μM to 3 nM (from high to low concentration). Specifically, the eight concentrations used were 10 μM, 3 μM, 1 μM, 300 nM, 100 nM, 30 nM, 10 nM and 3 nM.
Reaction mixtures were neutralized by the addition of 15 μl of tris(hydroxy-methyl)aminomethane (1M, pH 8.0) and then mixed by trituration with 37.5 μl of Microscint™-E (Perkin Elmer). Plates contents were allowed to partition for 15 to 30 min before ^14C was measured in a scintillation spectrometer (Wallac Microbeta Trilux 1450-030 liquid scintillation counter 12 detector in the top-count DPM mode). Percent inhibition of test compounds was computed as […].
Four separate assays were performed using 4 different methods of analysis. The method of analysis of Assay 1 was the same as Assay 4 (described above) except microsomes were utilized at 25 μg/mL instead of 5 μg/mL. The method of analysis of Assay 2 was the same as Assay 4 (described above) except eleven (11) concentrations of inhibitor were employed instead of eight (8). The method of analysis of Assay 3 was the same as Assay 2 except the compounds were serially diluted in a different laboratory.
Where this DGAT-1 inhibition assay was performed on a compound more than once, an average is provided for that compound.

Row | Structure (SMILES) | pIC50
1 | CNC(=O)C(C)(C)c1ccc(N2CCc3nc(OC)nc(N)c3C2=O)cc1 [Example 3G, 2-[4-(4-amino-2-methoxy-5-oxo-7,8-dihydropyrido[4,3-d]pyrimidin-6(5H)-yl)phenyl]-N,2-dimethylpropanamide] | 6.90
2 | COc1nc(N)c2c(n1)CCN(c1ccc(C(C)(C)C(=O)N(C)C)cc1)C2=O [Example 3H, 2-[4-(4-amino-2-methoxy-5-oxo-7,8-dihydropyrido[4,3-d]pyrimidin-6(5H)-yl)phenyl]-N,N,2-trimethylpropanamide] | 6.59
3 | COc1nc(N)c2c(n1)CCN(c1ccc(C(C)(C)C(N)=O)cc1)C2=O [Example 3I, 2-[4-(4-amino-2-methoxy-5-oxo-7,8-dihydropyrido[4,3-d]pyrimidin-6(5H)-yl)phenyl]-2-methylpropanamide] | 7.28
4 | COc1nc(N)c2c(n1)CCN(c1ccc(C(C)(C)c3ncnn3C)cc1)C2=O [Example 3K, 4-amino-2-methoxy-6-{4-[1-methyl-1-(1-methyl-1H-1,2,4-triazol-5-yl)ethyl]phenyl}-7,8-dihydropyrido[4,3-d]pyrimidin-5(6H)-one] | 6.10
5 | COc1nc(N)c2c(n1)CCN(c1ccc(C(C)(C)c3ncn[nH]3)cc1)C2=O [Example 3N] | 7.11
6 | COc1nc(N)c2c(n1)CCN(c1ccc(C(C)(C)C#N)cc1)C2=O [Example 3O, 2-[4-(4-amino-2-methoxy-5-oxo-7,8-dihydropyrido[4,3-d]pyrimidin-6(5H)-yl)phenyl]-2-methylpropanenitrile] | 7.05
7 | COc1nc(N)c2c(n1)CCN(c1ccc(C(C)(C)c3nnn[nH]3)cc1)C2=O [Example 3P, 4-amino-2-methoxy-6-{4-[1-methyl-1-(1H-tetrazol-5-yl)ethyl]phenyl}-7,8-dihydropyrido[4,3-d]pyrimidin-5(6H)-one] | 7.68
8 | COc1nc(N)c2c(n1)CCN(c1ccc(C(C)(C)CNC(C)=O)cc1)C2=O [Example 3U, N-{2-[4-(4-amino-2-methoxy-5-oxo-7,8-dihydropyrido[4,3-d]pyrimidin-6(5H)-yl)phenyl]-2-methylpropyl}acetamide] | 7.07
9 | COc1nc(N)c2c(n1)CCN(c1cccc(C(C)C)c1)C2=O [Example 6B, 4-amino-6-(3-isopropylphenyl)-2-methoxy-7,8-dihydropyrido[4,3-d]pyrimidin-5(6H)-one] | 6.06
10 | COc1nc(N)c2c(n1)CCN(c1cccc(C(C)(C)C)c1)C2=O [Example 6C, 4-amino-6-(3-tert-butylphenyl)-2-methoxy-7,8-dihydropyrido[4,3-d]pyrimidin-5(6H)-one] | 7.42
11 | CCOc1nc(N)c2c(n1)CCN(c1ccc(C(C)(C)C)cc1)C2=O [Example 6D, 4-amino-6-(4-tert-butylphenyl)-2-ethoxy-7,8-dihydropyrido[4,3-d]pyrimidin-5(6H)-one] | 6.05
12 | COc1nc(N)c2c(n1)CCN(c1ccc(C(F)(F)F)cc1)C2=O [Example 6F, 4-amino-2-methoxy-6-[4-(trifluoromethyl)phenyl]-7,8-dihydropyrido[4,3-d]pyrimidin-5(6H)-one] | 6.48
13 | COc1nc(N)c2c(n1)CCN(c1ccc(C(C)C)cc1F)C2=O [Example 6G, 4-amino-6-(2-fluoro-4-isopropylphenyl)-2-methoxy-7,8-dihydropyrido[4,3-d]pyrimidin-5(6H)-one] | 7.70
14 | COc1nc(N)c2c(n1)CCN(c1ccc(C(C)(C)C)c(F)c1)C2=O [Example 6H, 4-amino-6-(4-tert-butyl-3-fluorophenyl)-2-methoxy-7,8-dihydropyrido[4,3-d]pyrimidin-5(6H)-one] | 7.90
15 | COc1nc(N)c2c(n1)CCN(c1ccc(C(C)(C)C)cc1F)C2=O [Example 6I, 4-amino-6-(4-tert-butyl-2-fluorophenyl)-2-methoxy-7,8-dihydropyrido[4,3-d]pyrimidin-5(6H)-one] | 8.31
16 | COc1nc(N)c2c(n1)CCN(c1ccc3c(c1)N(C)C(=O)C3(C)C)C2=O [Example 6J, 4-amino-2-methoxy-6-(1,3,3-trimethyl-2-oxo-2,3-dihydro-1H-indol-6-yl)-7,8-dihydropyrido[4,3-d]pyrimidin-5(6H)-one] | 6.59
17 | COc1nc(N)c2c(n1)CCN(c1ccc(C(C)(C)C(F)(F)F)cc1)C2=O [Example 6K, 4-amino-2-methoxy-6-[4-(2,2,2-trifluoro-1,1-dimethylethyl)phenyl]-7,8-dihydropyrido[4,3-d]pyrimidin-5(6H)-one] | 7.49
18 | COc1nc(N)c2c(n1)CCN(c1ccc([C@H]3CC[C@H](Cc4nc(C)no4)CC3)c(F)c1)C2=O [Example 7E, 4-amino-6-(3-fluoro-4-{trans-4-[(3-methyl-1,2,4-oxadiazol-5-yl)methyl]cyclohexyl}phenyl)-2-methoxy-7,8-dihydropyrido[4,3-d]pyrimidin-5(6H)-one] | 7.41
19 | COc1nc(N)c2c(n1)CCN(c1ccc(C(C)(C)NC(C)=O)cc1)C2=O [Example 8A, N-{1-[4-(4-amino-2-methoxy-5-oxo-7,8-dihydropyrido[4,3-d]pyrimidin-6(5H)-yl)phenyl]-1-methylethyl}acetamide] | 5.80
20 | COc1nc(N)c2c(n1)CCN(c1ccc(Cl)c(Cl)c1)C2=O [Example 9A, 4-amino-6-(3,4-dichlorophenyl)-2-methoxy-7,8-dihydropyrido[4,3-d]pyrimidin-5(6H)-one] | 7.16
21 | COc1nc(N)c2c(n1)CCN(c1ccc3c(c1)OCCO3)C2=O [Example 9B, 4-amino-6-(2,3-dihydro-1,4-benzodioxin-6-yl)-2-methoxy-7,8-dihydropyrido[4,3-d]pyrimidin-5(6H)-one] | 6.98
22 | COc1nc(N)c2c(n1)CCN(c1ccccc1)C2=O [Example 9C, 4-amino-2-methoxy-6-phenyl-7,8-dihydropyrido[4,3-d]pyrimidin-5(6H)-one] | 6.23
23 | COc1nc(N)c2c(n1)CCN(c1ccc(Cl)c(F)c1)C2=O [Example 9D, 4-amino-6-(4-chloro-3-fluorophenyl)-2-methoxy-7,8-dihydropyrido[4,3-d]pyrimidin-5(6H)-one] | 7.00
24 | COc1nc(N)c2c(n1)CCN(c1ccc(Cl)cc1)C2=O [Example 9F, 4-amino-6-(4-chlorophenyl)-2-methoxy-7,8-dihydropyrido[4,3-d]pyrimidin-5(6H)-one] | 6.13
25 | COc1nc(N)c2c(n1)CCN(c1ccc(OC(C)C)cc1)C2=O [Example 9G, 4-amino-6-(4-isopropoxyphenyl)-2-methoxy-7,8-dihydropyrido[4,3-d]pyrimidin-5(6H)-one] | 6.99
